Experimental data reported in US5476966A, “Method for depletion of glutathione” (Cornell Research Foundation, Inc., priority 1995, dated 1995).

Legend:
[1] = system: mouse L1210 leukemia cells; conditions: resistant cells treated with BSO; cited from earlier work
[2] = system: human lymphoid cell lines; conditions: cited from earlier work
[3] = mice depleted of glutathione by buthionine sulfoximine; cited from earlier work
[4] = Detection of compound in mouse bile; type: in vivo
glutathione [5] = assay: Tissue glutathione levels after intraperitoneal administration of sulfoximines; type: in vivo, mouse; conditions: 2 mmol/Kg i.p.
Method: Male mice (Swiss Webster) were fasted overnight (about 16 hr). L-3-methylbuthionine-SR-sulfoximine (3 mBSO; L-S-3-methylbutyl homocysteine-SR-sulfoximine; L-S-isopentyl homocysteine-SR-sulfoximine), L-buthionine-SR-sulfoximine(BSO; L-S-butyl homocysteine-SR-sulfoximine), L-2-methylbuthiomine-SR-sulfoximine (2 mBSO, L-S-2methylbutyl homocysteine-SR-sulfoximine), or saline (0.9% NaCl) were administered to mice at 2 mmol/Kg intraperitoneally (50 mM, Ph ^~ 7). At the times indicated, plasma and tissues were obtained and assayed for glutathione (GSH+1/2 GSSG) as described by Anderson, Methods in Enzymology, 1985, 113:548-555.

tumor cell lines = conditions: glucose oxidase, activated macrophages and granulocytes with phorbol myristate acetate; cited from earlier work
glutathione [6] = assay: Tissue glutathione after oral administration of sulfoximines (Table 4); type: in vivo, mouse; conditions: 2 mmol/Kg oral
Method: Male mice (Swiss Webster) were fasted overnight (about 16 hr.) L-buthionine-SR-sulfoximine (BSO, S-n-butyl homocysteine-SR-sulfoximine), L-S-cyclohexylmethyl homocysteine-SR-sulfoximine (CHMSO); L-S-2-ethylbutylhomocysteine-SR-sulfoximine (2 EtBSO, L-S-2-ethylbutyl homocysteine-SR-sulfoximine, or saline (0.9% NaCl) were administered to mice at 2 mmol/Kg by intubation (100 mM; pH about 1 with HCl (200 mM). At the times indicated, plasma and tissues were obtained and assayed for glutathione (GSH+1/2 GSSG) as described by Anderson, Methods in Enzymology, 1985, 113:548-555. (See Table 4 and 5.)

[7] = system: human ovarian cancer cells; conditions: cited from earlier work
[8] = system: human lymphoid cell lines; conditions: cited from earlier work; remark: listed apart in the source
[9] = target: T1, γ-Glutamylcysteine Synthetase (Rattus norvegicus, UniProt P19468); assay: Inhibition of γ-glutamylcysteine synthetase (preincubation assay); type: biochemical; conditions: 30 min preincubation, 22° C.; read-out: Kiapp; Concentration for 50% Inhibition
T1 construct: Rat kidney γ-Glutamylcysteine synthetase was purified from Sprague Dawley (Taconic Farms) rats; from tissue; host or cells: rat kidney (Sprague Dawley, Taconic Farms)
T1 sequence (P19468 1-637): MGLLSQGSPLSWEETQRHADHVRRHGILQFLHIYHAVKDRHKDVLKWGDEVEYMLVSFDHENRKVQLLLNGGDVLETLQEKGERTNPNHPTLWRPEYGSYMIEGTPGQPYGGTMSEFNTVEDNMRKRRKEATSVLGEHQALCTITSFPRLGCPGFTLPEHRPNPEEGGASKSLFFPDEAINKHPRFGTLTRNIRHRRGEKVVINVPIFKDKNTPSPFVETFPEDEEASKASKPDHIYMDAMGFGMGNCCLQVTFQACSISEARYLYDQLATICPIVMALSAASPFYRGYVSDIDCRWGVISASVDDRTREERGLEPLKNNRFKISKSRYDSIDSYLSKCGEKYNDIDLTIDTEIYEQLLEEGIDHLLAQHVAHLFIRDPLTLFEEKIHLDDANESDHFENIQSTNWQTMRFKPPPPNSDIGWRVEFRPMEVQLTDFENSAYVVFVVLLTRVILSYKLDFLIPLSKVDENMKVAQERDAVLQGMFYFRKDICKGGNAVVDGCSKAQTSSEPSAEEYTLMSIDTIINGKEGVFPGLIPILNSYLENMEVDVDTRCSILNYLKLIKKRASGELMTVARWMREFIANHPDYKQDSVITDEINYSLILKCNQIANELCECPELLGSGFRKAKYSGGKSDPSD
T1 sequence (P48508 1-274 partner): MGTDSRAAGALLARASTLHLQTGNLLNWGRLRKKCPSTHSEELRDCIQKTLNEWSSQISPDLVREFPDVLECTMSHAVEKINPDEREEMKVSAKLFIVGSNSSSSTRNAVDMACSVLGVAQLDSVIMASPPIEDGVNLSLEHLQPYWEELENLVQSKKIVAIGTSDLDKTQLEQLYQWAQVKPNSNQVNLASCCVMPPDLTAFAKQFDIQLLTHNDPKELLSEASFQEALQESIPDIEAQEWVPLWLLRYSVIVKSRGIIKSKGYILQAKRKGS
Method: Rat kidney γ-Glutamylcysteine synthetase was purified from Sprague Dawley (Taconic Farms) rats (Seelig., Methods in Enzymology, 1985, 113:379-390).
The preincubation assay of γ-glutamylcysteine synthetase is given below. γ-Glutamylcysteine synthetase (4.6 units) was added to a mixture (final volume, 50 μl) containing 100 mM Tris/HCl (pH 8.2), 5 mM ATP, 20 mM MgCl2, 0.2 mM EDTA, and the sulfoximine being evaluated. After incubation at 22° C. for 30 minutes, a 45 μl aliquot of the preincubation mixture was added to the assay as follows.
γ-Glutamylcysteine synthetase was assayed as follows (Griffith et al, J. Biological Chem., 1979, 254:1205-1210). The reaction mixture (final volume, 1.0 ml) contained 100 mM Tris/HCl (pH 8.2), 120 mM KCl, 5 mM phosphoenolpyruvate, 20 mM MgCl2, 10 mM sodium L-glutamate, 10 mM L-α-aminobutyric acid, 0.2 mM EDTA, 0.4 mM NADH, pyruvate kinase (10 IU), and lactate dehydrogenase (10 IU). The reaction (37° C.) was initiated by the addition of γ-glutamylcysteine synthetase and the oxidation of NADH, equivalent to ADP formation, was recorded at 340 nm.

resistant tumors = conditions: continuous intraperitoneal infusion of BSO; cited from earlier work
[10] = system: human ovarian tumor cells; conditions: grown in nude mice; cited from earlier work
resistant cells = conditions: glutathione depletion by BSO; cited from earlier work

Structure (SMILES): CCCCS(=N)(=O)CCC(N)C(=O)O [BSO, L-S-butyl homocysteine-SR-sulfoximine]
- sensitivity of resistant cells to phenylalanine mustard [1]: resensitization of the tumor cells to phenylalanine mustard
- sensitivity to γ-radiation ([2]; cells with 4-5% of control glutathione): much more sensitive
- sensitivity to radiation ([2]; glutathione about 5% of the control levels): marked increase in sensitivity to radiation
- decrease in LD50 value of acetaminophen [3]: about 80%
- detection in mouse bile [4]: no BSO was detected
- % Decrease in glutathione (glutathione [5]; brain, 2 hr): 10%
- Glutathione level (glutathione [5]; brain, 2 hr): 2.08 µmol/g
- % Decrease in glutathione (glutathione [5]; brain, 12 hr): 17%
- Glutathione level (glutathione [5]; brain, 12 hr): 1.93 µmol/g
- % Decrease in glutathione (glutathione [5]; heart, 2 hr): 14%
- Glutathione level (glutathione [5]; heart, 2 hr): 1.16 µmol/g
- % Decrease in glutathione (glutathione [5]; heart, 12 hr): 57%
- Glutathione level (glutathione [5]; heart, 12 hr): 0.56 µmol/g
- % Decrease in glutathione (glutathione [5]; kidney, 2 hr): 82%
- Glutathione level (glutathione [5]; kidney, 2 hr): 0.76 µmol/g
- % Decrease in glutathione (glutathione [5]; kidney, 12 hr): 79%
- Glutathione level (glutathione [5]; kidney, 12 hr): 0.75 µmol/g
- % Decrease in glutathione (glutathione [5]; liver, 2 hr): 72%
- Glutathione level (glutathione [5]; liver, 2 hr): 1.50 µmol/g
- % Decrease in glutathione (glutathione [5]; liver, 12 hr): 32%
- Glutathione level (glutathione [5]; liver, 12 hr): 3.37 µmol/g
- % Decrease in glutathione (glutathione [5]; plasma, 2 hr): 66%
- Glutathione level (glutathione [5]; plasma, 2 hr): 10.1 µM
- % Decrease in glutathione (glutathione [5]; plasma, 12 hr): 43%
- Glutathione level (glutathione [5]; plasma, 12 hr): 16.3 µM
- degree of cytolysis (tumor cell lines): enhanced the degree of cytolysis
- % Decrease in glutathione (glutathione [6]; brain, 2 hr): 24%
- Glutathione level (glutathione [6]; brain, 2 hr): 1.86 µmol/g
- % Decrease in glutathione (glutathione [6]; brain, 12 hr): 18%
- Glutathione level (glutathione [6]; brain, 12 hr): 1.73 µmol/g
- % Decrease in glutathione (glutathione [6]; kidney, 2 hr): 80%
- Glutathione level (glutathione [6]; kidney, 2 hr): 0.69 µmol/g
- % Decrease in glutathione (glutathione [6]; kidney, 12 hr): 87%
- Glutathione level (glutathione [6]; kidney, 12 hr): 0.45 µmol/g
- % Decrease in glutathione (glutathione [6]; liver, 2 hr): 75%
- Glutathione level (glutathione [6]; liver, 2 hr): 1.23 µmol/g
- % Decrease in glutathione (glutathione [6]; liver, 12 hr): 78%
- Glutathione level (glutathione [6]; liver, 12 hr): 1.10 µmol/g
- % Decrease in glutathione (glutathione [6]; plasma, 2 hr): 59%
- Glutathione level (glutathione [6]; plasma, 2 hr): 9.7 µM
- % Decrease in glutathione (glutathione [6]; plasma, 12 hr): 69%
- Glutathione level (glutathione [6]; plasma, 12 hr): 7.2 µM
- reversal of resistance ([7]; glutathione depletion with BSO): Reversal of resistance can be achieved
- sensitivity of resistant cells to the drugs and to radiation ([7]; glutathione depletion): significantly increases the sensitivity of the resistant cells
- disappeared intracellular glutathione found in the medium ([8]; CEM line, L-serine plus borate in medium): About 50%
- cell viability on further decrease in glutathione level ([8]; below 0.09 mM glutathione): marked loss of viability
- cell viability ([8]; cells with 0.09 mM glutathione (4% of controls)): 85%
- cellular glutathione as percent of control levels ([8]; three human lymphoid cell lines, medium containing BSO, 50 hours): about 5%
- Ki [9]: 0.6 µM
- life span (resistant tumors): increase in the life span
- sensitization of tumors to phenylalanine mustard (resistant tumors): sensitization of the tumors to the effects of phenylalanine mustard was achieved
- reversal of resistance [10]: reversal of resistance
- reversal of drug resistance (resistant cells): reversal of drug resistance
